Columns and labels:
epilepsy patients = experiment: Clinical trials in epilepsy patients and volunteers (Example 1); assay type: in vivo, human
Experimental: Clinical trials involving administration of sodium bicyclo-[2.2.2]-octane-2-carboxylate were performed on 30 epilepsy patients and 20 volunteers in two clinics in Moscow. […] Classification of the patients was done in accordance with International Classification of Epilepsy and Epileptic Syndromes (ILAE, 1989). Some of the subjects also suffered from addictive disorders (alcoholism, drug addiction). In 73% of trial subjects, sodium bicyclo-[2.2.2]-octane-2-carboxylate administration reduced the frequency, intensity, and duration of epileptic seizures. […] It normalized cerebral blood circulation and increased the sympathetic tonus of the patients. […] The following were used to assess trial subjects: • Visual checkup • EEG • CT • MRT • Clinical blood and urine tests • general blood test • biochemical blood test • general urine tests • Inspection and checkup of organs and systems: • respiratory system • cardiovascular system • alimentary system • urinary system • Neurological status • Concurrent disease status.

adult epilepsy patients [1] = experiment: Randomized open-controlled study, add-on to base therapy: frequency and severity of epileptic seizures (Example 2); assay type: in vivo, human
Experimental: The study of sodium bicyclo-[2.2.2]-octane-2-carboxylate as an addition to a base therapy was conducted in the group of adult epilepsy patients. Sodium bicyclo-[2.2.2]-octane-2-carboxylate was administered during 10 weeks. Thirty patients in both hospitals (twenty-six males and four females) were included in the studies.
Base therapy was administered in accordance with recommendations by the International Anti-epileptic League (1989). During the study, the patients continued to receive pathogenetic treatment. Medication names, doses and the duration of any treatment were registered in patients' medical records (MR). The patients continued receiving their standard prescribed medications and were not switched to a different drug at any time during the study.
During the introductory period of 7 to 10 days, the patients were examined; base therapy scheme was being finalized and was described in a standard protocol. In accordance with the protocol, the patients were screened for inclusion/exclusion factors. Only those patients who signed an informed consent and who satisfied the inclusion criteria were included in the study. The frequency of epileptic seizures in patients receiving pre-sodium bicyclo-[2.2.2]-octane-2-carboxylate base therapy varied from 1 to 16 times a month.
(§1) At the start of sodium bicyclo-[2.2.2]-octane-2-carboxylate protocol, all patients began receiving sodium bicyclo-[2.2.2]-octane-2-carboxylate at 100 mg four times a day. If the clinical effect was absent by day 14, the dose of Sodium bicyclo-[2.2.2]-octane-2-carboxylate was increased to 150 mg. Patients with various forms of epilepsy were selected for the study (Table 2).
(§2) Main study parameters included efficiency criteria such as the number and severity of seizures, and safety criteria such as the clinical and laboratory tests. The complete examination included: • 1) Neurological exams. • 2) Computer-assisted tomography (CAT scan). • 3) MRI of the brain. • 4) General blood work: baseline before Sodium bicyclo-[2.2.2]-octane-2-carboxylate treatment, 2 weeks and 1.5 months after the beginning of the treatment. • 5) General urine analysis. • 6) Blood biochemistry. • 7) ECG. • 8) EEG and pharmaco-EEG. Physical exams and testing results were registered by a research physician in the MRs and were analyzed by statistical methods.
To evaluate treatment efficacy, the frequency and severity of epileptic seizures were monitored. […] In the majority of patients suffering from partial epilepsy, seizures became less severe and occurred less frequently. The patients reported feeling better, with improvement of mood, work efficiency, and sleep quality. […]

adult epilepsy patients [2] = experiment: General blood work before and after treatment (Example 2, safety); assay type: in vivo, human
Experimental: as §1, §2
(§3) The effective therapeutic dose was determined as 400 mg per day in 60% of the patients, and 600 mg per day in the remaining 40%. Safety aspects of sodium bicyclo-[2.2.2]-octane-2-carboxylate were evaluated during the treatment and after the treatment by monitoring the clinical and laboratory parameters.
(§4) Before-before Sodium bicyclo-[2.2.2]-octane-2-carboxylate treatment After-after Sodium bicyclo-[2.2.2]-octane-2-carboxylate treatment. No statistically significant differences in any other parameters before and after Sodium bicyclo-[2.2.2]-octane-2-carboxylate treatment were detected.

adult epilepsy patients [3] = experiment: Blood chemistry before and after treatment (Example 2, safety); assay type: in vivo, human
Experimental: as §1, §2, §3, §4

adult epilepsy patients [4] = experiment: EEG parameters before and after treatment (Example 2); assay type: in vivo, human; conditions: averaged, after treatment (before treatment: 197.7)
Text: as §2

adult epilepsy patients [5] = experiment: ECG recording during the study (Example 2); assay type: in vivo, human; conditions: patients with extrasystolia and tachycardia
Text: as §2, with “methods. ECGs were recorded before the beginning of the treatment, during the course of the study (on a regular basis), and immediately after the study had been completed. […] In the patients with extrasystolia and tachycardia, extrasystolia was not observed by the end of the first treatment month, while the heart rate decreased on average from 88/min to 80/min. In the patients with bradycardia, sinus rhythm dropped further.” for “methods.”

adult epilepsy patients [6] = experiment: Dysphoria and general condition in the study patients (Example 2); assay type: in vivo, human
Experimental: During each scheduled visit and at the completion of the study, complete physical examination of each patient was performed. Physical exams included patients' general condition, examinations of the skin, ENT, lungs, heart, stomach, lymph nodes, central nervous system, etc. Valid data obtained before beginning of Sodium bicyclo-[2.2.2]-octane-2-carboxylate treatment was entered in appropriate sections of MRs. The data collected during the treatment (including the observed side effects) was entered in the Brief Description sections of the MRs. […] This effect correlated with disappearance of alcohol addiction.

[7] = average, after treatment (before: 4.75)
[8] = deviation after vs before treatment

For `O=C([O-])C1CC2CCC1CC2.[Na+]` (centres unmarked) [Sodium bicyclo-[2.2.2]-octane-2-carboxylate], the “trial subjects with reduced frequency, intensity, and duration of epileptic seizures” value (epilepsy patients; 30 epilepsy patients and 20 volunteers, two clinics) was 73%, the “side effects in human clinical trials” value (epilepsy patients; human clinical trials) was “without significant negative side effects” and the effective therapeutic dose (adult epilepsy patients [1]; in 60% of the patients) was 400 mg per day. For the same compound, the effective therapeutic dose (adult epilepsy patients [1]; in the remaining 40% of the patients) was 600 mg per day, the “patients with decrease in seizure frequency (number)” value (adult epilepsy patients [1]; of 30 patients) was 22 patients and the “patients with decrease in seizure frequency (percent)” value (adult epilepsy patients [1]; of 30 patients) was 73.3%. The “Color Index, After” value (adult epilepsy patients [2]; average, after treatment (before: 0.895)) was 0.928, the “Eosinophiles (%), After” value (adult epilepsy patients [2]; average, after treatment (before: 2.53)) was 2.53% and the “Monocytes (%), After” value (adult epilepsy patients [2]; average, after treatment (before: 3.0)) was 2.8%. The Erythrocytes, After (adult epilepsy patients [2]; [7]) was 4.79 10^12/L, the “ESR, After” value (adult epilepsy patients [2]; average, after treatment (before: 7.3)) was 5.2 mm and the Leukocytes, After (adult epilepsy patients [2]; average, after treatment (before: 7.9)) was 7.47 10^9/L. The “Lymphocytes (%), After” value (adult epilepsy patients [2]; average, after treatment (before: 20.9)) was 21.1%, the “Neutrophiles (%), After” value (adult epilepsy patients [2]; average, after treatment (before: 72.7)) was 71.2% and the “Hemoglobin, After” value (adult epilepsy patients [2]; average, after treatment (before: 143.4), in g/L (unit assumed)) was 140.13. For the same compound, the “Platelets, After” value (adult epilepsy patients [2]; average, after treatment (before: 205.5), in 10^9/L (unit assumed)) was 230.3, the “Color Index, % dev.” value (adult epilepsy patients [2]; [8]) was 3.7% and the “ESR, % dev.” value (adult epilepsy patients [2]; [8]) was 28.8%. The “Eosinophiles, % dev.” value (adult epilepsy patients [2]; [8]) was 0%, the “Erythrocytes, % dev.” value (adult epilepsy patients [2]; [8]) was 1.48% and the “Hemoglobin, % dev.” value (adult epilepsy patients [2]; [8]) was 2.3%. The “Leukocytes, % dev.” value (adult epilepsy patients [2]; [8]) was 5.95%, the “Lymphocytes, % dev.” value (adult epilepsy patients [2]; [8]) was 0.94% and the “Monocytes, % dev.” value (adult epilepsy patients [2]; [8]) was 6.7%. The “Neutrophiles, % dev.” value (adult epilepsy patients [2]; [8]) was 2.06%, the “Platelets, % dev.” value (adult epilepsy patients [2]; [8]) was 12.07% and the “effects on the blood counts and blood biochemistry” value (adult epilepsy patients [2]; during and after the treatment) was “No unfavorable effects”. The “changes in blood and urine tests” value (adult epilepsy patients [2]; summary of the study) was “did not cause any changes”, the Glucose, After (adult epilepsy patients [3]; [7]) was 4.48 mmol/L and the General bilirubin, After (adult epilepsy patients [3]; average, after treatment (before: 14.3)) was 11.5 µmol/L. The “ACT, After” value (adult epilepsy patients [3]; average, after treatment (before: 45.1)) was 24.6, the “ALT, After” value (adult epilepsy patients [3]; average, after treatment (before: 46.2)) was 21.5 and the Creatinin, after (adult epilepsy patients [3]; average, after treatment (before: 70.5)) was 69.4 µmol/L. The General Protein, After (adult epilepsy patients [3]; average, after treatment (before: 75.5)) was 77.4 g/L, the “ACT, % dev.” value (adult epilepsy patients [3]; [8]) was 45.4% and the “ALT, % dev.” value (adult epilepsy patients [3]; [8]) was 53.5%. For the same compound, the “Creatinin, % dev.” value (adult epilepsy patients [3]; [8]) was 1.6%, the “General Protein, % dev.” value (adult epilepsy patients [3]; [8]) was 2.5% and the “General bilirubin, % dev.” value (adult epilepsy patients [3]; [8]) was 19.6%. The “Glucose, % dev.” value (adult epilepsy patients [3]; [8]) was 5.7%, the “EEG parameters (focus of pathological activity)” value (adult epilepsy patients [4]) was 151.5 μV and the heart rate (adult epilepsy patients [5]; average, decreased from 88/min) was 80 min⁻¹. For the same compound, the extrasystolia (adult epilepsy patients [5]; by the end of the first treatment month) was “not observed”, the “patients' behavior and the functions of major organs and systems” value (adult epilepsy patients [6]; during 10 weeks of treatment) was “not negatively affected” and the “cases with effective treatment of dysphoria or dysphoria-like conditions” value (adult epilepsy patients [6]; of all cases) was 93.3%. The “dysphoria and paroxysmal activity on EEG” value (adult epilepsy patients [6]; patients who suffered from alcohol addiction in the past, after 1.5 month of treatment) was “disappeared or decreased” and the melting point was 84 to 86 °C.

Source: US10966944B2, “[2.2.2] bicyclic derivatives and methods of use” (ASE PHARMACEUTICALS, LLC, priority 2008, dated 2021)
